Data set [1] addresses G-actin monomers. To be noted: 1:1 ratio; read-out: Kd, sequestration of G-actin monomers; cited from earlier work.
For data set [2] the following is noted: in the blood stream; cited from earlier work.
Data set [3] addresses T1, Glucagon receptor (Rattus norvegicus, UniProt P30082).
T1 construct: from tissue; host or cells: rat liver membranes
The conditions noted are these: cited from earlier work.

Data set [4] deals with vasoactive intestinal peptide (VIP). To be noted: read-out: IC50, selective VIP antagonist; cited from earlier work.
Data set [5] has as its target glucagon receptors (Homo sapiens, UniProt P47871). To be noted: cited from earlier work.
In data set [6] the target is T2, GRF receptors (Homo sapiens, UniProt Q02643).
T2 sequence (Q02643 23-423): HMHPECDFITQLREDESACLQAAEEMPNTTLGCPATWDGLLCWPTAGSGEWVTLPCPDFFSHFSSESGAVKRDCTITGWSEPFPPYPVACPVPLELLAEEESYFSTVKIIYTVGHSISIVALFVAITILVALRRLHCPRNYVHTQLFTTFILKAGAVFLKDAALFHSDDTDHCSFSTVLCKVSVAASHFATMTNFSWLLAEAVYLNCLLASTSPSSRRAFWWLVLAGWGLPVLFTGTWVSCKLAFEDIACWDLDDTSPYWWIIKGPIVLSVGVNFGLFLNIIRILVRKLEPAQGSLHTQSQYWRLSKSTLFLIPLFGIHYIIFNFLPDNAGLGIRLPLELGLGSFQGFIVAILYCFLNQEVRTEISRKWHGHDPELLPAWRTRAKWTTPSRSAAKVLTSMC
The conditions noted are these: cited from earlier work.

In data set [7] the target is secretin receptors (Homo sapiens, UniProt P47872). The conditions noted are these: cited from earlier work.
The test system of data set [8] is calcitonin (CT) receptor. The conditions noted are these: cited from earlier work.
Data set [9] addresses calcitonin-gene related peptide (CGRP) receptors (Homo sapiens, UniProt O60894+Q16602). To be noted: cited from earlier work.
For data set [10], the target named is adrenomedullin receptors (Homo sapiens, UniProt Q16602). The conditions noted are these: cited from earlier work.
In data set [11] the target is T3, VIPR2 (Homo sapiens, UniProt P41587).
T3 construct: host or cells: cAMP Hunter cell lines (CHO-K1 is named only in the prophetic assay)
T3 sequence (P41587 24-438): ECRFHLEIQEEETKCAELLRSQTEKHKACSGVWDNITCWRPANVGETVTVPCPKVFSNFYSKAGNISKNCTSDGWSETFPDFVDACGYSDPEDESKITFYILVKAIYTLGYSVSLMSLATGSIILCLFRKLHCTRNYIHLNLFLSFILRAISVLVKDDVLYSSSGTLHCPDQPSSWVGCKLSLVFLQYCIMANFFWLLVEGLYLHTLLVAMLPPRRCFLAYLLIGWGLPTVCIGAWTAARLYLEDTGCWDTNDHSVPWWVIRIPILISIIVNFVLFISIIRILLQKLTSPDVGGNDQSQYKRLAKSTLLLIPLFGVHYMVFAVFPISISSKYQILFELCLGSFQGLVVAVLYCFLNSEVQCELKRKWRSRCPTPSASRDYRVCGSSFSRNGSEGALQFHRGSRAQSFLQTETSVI
The data set is described as follows: cAMP Hunter cell line functional assay, agonist mode (DiscoveRx HitHunter cAMP XS+). The format is cell-based. The conditions noted are these: for Mean RLU: Cell Line VIPR2, Mode Agonist, Readout cAMP. The protocol:
(§1) Once it was established that the cells were healthy and growing normally, cells were passaged from flasks using cell dissociation reagent buffer and seeded into white walled clear bottom 384-well microplates for compound profiling. For profiling, cells were seeded at a density of 10,000 cells per well in a total volume of 20 μL and were allowed to adhere and recover overnight prior to compound addition. cAMP modulation was determined using the DiscoveRx HitHunter cAMP XS+ assay.
(§2) For profiling compound in agonist mode, the cells were incubated in the presence of compound at 37° C. for 30 minutes. […] After appropriate compound incubation, assay signal was generated through incubation with DiscoverX lysis cocktail according to the manufacturers standard protocol. Dose curves were plotted using GraphPad Prism or Activity Base. Percentage activity is calculated using the following formula: % Activity=100%×(mean RLU of test sample−mean RLU of vehicle control)/(mean RLU of MAX control−mean RLU of vehicle control).

For data set [12], the target named is T4, VIPR1 (Homo sapiens, UniProt P32241).
T4 sequence (P32241 31-457): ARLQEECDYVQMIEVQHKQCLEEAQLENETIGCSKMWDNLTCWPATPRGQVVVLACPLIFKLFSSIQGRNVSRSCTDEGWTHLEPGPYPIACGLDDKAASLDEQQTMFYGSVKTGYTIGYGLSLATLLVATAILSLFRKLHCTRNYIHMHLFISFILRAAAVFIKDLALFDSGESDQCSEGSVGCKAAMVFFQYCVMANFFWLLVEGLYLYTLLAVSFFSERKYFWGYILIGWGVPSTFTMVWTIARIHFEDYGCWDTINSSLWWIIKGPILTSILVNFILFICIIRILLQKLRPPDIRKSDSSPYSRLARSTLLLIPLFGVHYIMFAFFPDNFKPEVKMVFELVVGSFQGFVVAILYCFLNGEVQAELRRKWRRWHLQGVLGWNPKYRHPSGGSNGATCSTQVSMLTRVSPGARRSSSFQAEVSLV
Described as above. The format is cell-based. The conditions noted are these: for Mean RLU: Cell Line VIPR1, Mode Agonist, Readout cAMP. The protocol:
as §1, §2

No end group written: not given here.

T1 sequence (P30082 27-485): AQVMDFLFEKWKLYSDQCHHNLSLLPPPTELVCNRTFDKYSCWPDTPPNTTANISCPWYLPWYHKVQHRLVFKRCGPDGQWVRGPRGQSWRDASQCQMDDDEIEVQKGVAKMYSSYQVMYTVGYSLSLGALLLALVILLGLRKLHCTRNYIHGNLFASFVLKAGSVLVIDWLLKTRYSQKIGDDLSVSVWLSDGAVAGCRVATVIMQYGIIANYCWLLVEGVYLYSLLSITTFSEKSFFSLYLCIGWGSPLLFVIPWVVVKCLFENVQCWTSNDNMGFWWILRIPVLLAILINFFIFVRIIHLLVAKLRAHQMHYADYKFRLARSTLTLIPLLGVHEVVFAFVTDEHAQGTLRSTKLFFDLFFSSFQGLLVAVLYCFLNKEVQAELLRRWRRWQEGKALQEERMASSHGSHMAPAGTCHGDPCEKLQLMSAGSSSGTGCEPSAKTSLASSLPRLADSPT
Sequence of glucagon receptors (P47871 26-477): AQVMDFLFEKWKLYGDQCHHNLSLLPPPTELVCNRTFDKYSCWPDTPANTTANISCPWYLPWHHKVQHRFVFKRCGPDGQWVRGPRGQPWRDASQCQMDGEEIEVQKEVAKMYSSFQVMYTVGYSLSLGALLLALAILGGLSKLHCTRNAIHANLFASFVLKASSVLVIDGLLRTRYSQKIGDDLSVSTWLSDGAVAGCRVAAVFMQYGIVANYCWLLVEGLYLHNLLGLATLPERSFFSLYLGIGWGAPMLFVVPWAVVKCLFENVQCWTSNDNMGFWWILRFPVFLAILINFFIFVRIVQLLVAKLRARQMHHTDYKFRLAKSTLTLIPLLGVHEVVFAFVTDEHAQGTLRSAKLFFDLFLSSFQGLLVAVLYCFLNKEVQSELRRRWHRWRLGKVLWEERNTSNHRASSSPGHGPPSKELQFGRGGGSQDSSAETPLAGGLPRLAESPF
Sequence of adrenomedullin receptors (Q16602 23-461): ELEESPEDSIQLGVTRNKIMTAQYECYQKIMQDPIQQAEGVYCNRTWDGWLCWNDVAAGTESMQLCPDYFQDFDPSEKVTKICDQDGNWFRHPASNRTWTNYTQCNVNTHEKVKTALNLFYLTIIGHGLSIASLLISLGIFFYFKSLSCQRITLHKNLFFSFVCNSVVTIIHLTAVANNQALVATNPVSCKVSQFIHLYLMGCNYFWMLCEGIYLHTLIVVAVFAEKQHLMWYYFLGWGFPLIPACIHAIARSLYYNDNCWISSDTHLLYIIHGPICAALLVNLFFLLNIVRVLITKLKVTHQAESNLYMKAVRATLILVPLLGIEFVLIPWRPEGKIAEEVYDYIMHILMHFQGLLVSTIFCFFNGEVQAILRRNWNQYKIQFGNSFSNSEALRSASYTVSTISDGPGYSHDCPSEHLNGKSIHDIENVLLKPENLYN
Sequence of calcitonin-gene related peptide (CGRP) receptors (Q16602 23-461): as above
Sequence of calcitonin-gene related peptide (CGRP) receptors (O60894 27-148 partner): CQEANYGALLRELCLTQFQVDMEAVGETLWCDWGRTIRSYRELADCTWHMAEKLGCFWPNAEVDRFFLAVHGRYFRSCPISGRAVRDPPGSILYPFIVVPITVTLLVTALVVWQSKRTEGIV
Sequence of secretin receptors (P47872 23-440): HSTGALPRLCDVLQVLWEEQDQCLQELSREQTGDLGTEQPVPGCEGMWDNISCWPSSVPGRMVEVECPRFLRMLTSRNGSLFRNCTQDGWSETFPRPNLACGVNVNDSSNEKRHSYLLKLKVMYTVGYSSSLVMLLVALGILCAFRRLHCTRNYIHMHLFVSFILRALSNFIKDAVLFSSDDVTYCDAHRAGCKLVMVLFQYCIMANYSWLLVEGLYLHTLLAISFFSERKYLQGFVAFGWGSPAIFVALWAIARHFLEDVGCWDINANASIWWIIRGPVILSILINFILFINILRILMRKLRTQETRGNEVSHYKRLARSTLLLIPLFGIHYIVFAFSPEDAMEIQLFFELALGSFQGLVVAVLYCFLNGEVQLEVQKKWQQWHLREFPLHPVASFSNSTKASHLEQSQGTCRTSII

As to Thymosin β4, the Kd in data set [1] is 700 to 1000 nM.

For the compound `CC[C@H](C)[C@H](NC(=O)[C@H](CO)NC(=O)[C@H](CC(N)=O)NC(=O)[C@H](CC(C)C)NC(=O)[C@H](Cc1ccc(O)cc1)NC(=O)[C@H](CCCCN)NC(=O)[C@H](CCCCN)NC(=O)[C@@H](NC(=O)[C@H](C)NC(=O)[C@H](CCSC)NC(=O)[C@H](CCC(N)=O)NC(=O)[C@H](CCCCN)NC(=O)[C@H](CCCN=C(N)N)NC(=O)[C@H](CC(C)C)NC(=O)[C@H](CCCN=C(N)N)NC(=O)[C@@H](NC(=O)[C@H](Cc1ccc(O)cc1)NC(=O)[C@H](CC(N)=O)NC(=O)[C@H](CC(=O)O)NC(=O)[C@@H](NC(=O)[C@H](Cc1ccccc1)NC(=O)[C@@H](NC(=O)[C@H](C)NC(=O)[C@H](CC(=O)O)NC(=O)[C@H](CO)NC(=O)[C@@H](N)Cc1c[nH]cn1)C(C)C)[C@@H](C)O)[C@@H](C)O)C(C)C)C(=O)N[C@@H](CC(C)C)C(=O)N[C@@H](CC(N)=O)C(N)=O` [VIP], in [2], the half-life entry is listed as “about two”.

Turning to des-His1-{Glu9}-Glucagon (1-29) amide, the “Agonist activity at the glucagon receptor” value in [3] is “adenylyl cyclase activation in rat liver membranes); displays no agonist activity”. In addition, in [3] (rat liver membranes), the “pA2 for inhibition of glucagon-induced adenylyl cyclase activation” value is on record as “(Glucagon receptor antagonist (pA2 = 7.2 for inhibition of glucagon-induced”.

On to {D-p-Cl-Phe6,Leu17}-VIP, for which, in data set [4], the concentration for half-maximal inhibition (IC50) was 126 nM. In addition, the “Activity on glucagon receptors” value in data set [5] was “Displays no activity on glucagon, secretin or GRF receptors.)”. The “Activity on GRF receptors” value in data set [6] is on record as “Displays no activity on glucagon, secretin or GRF receptors.)”. Besides, the “Activity on secretin receptors” value in data set [7] is on record as “Displays no activity on glucagon, secretin or GRF receptors.)”.

As for “Calcitoninreceptor-stimulating peptide-1 (SCNTATCMTHRLVGLLSRSGSMVRSNLLPTKMGFKVFG-NH2; ends and bridges not checked; UniProt Q862B1 81-118, looked up)”, in data set [8] (calcitonin (CT) receptor), the “ED50, stimulation of cAMP formation” value is on record as 0.2 nM. Further, in data set [8] (greater than CT), the “Potency in stimulating cAMP formation relative to CT” value is listed as 350 fold. For the same compound, the “Activity at CGRP receptors” value in [9] is “Displays no activity at calcitonin-gene related peptide (CGRP) and adrenomedullin”. For the same compound, the “Activity at adrenomedullin receptors” value in data set [10] was “Displays no activity at calcitonin-gene related peptide (CGRP) and adrenomedullin”.

As to `CC[C@H](C)[C@H](NC(=O)[C@H]1CCC[C@@H]1NC(=O)[C@H](CC(N)=O)NC(=O)[C@H](CC(C)C)NC(=O)[C@H](Cc1ccc(O)cc1)NC(=O)[C@H]1CNC[C@@H]1NC(=O)[C@H](CCCCN)NC(=O)[C@@H](NC(=O)[C@H]1CCC[C@@H]1NC(=O)[C@H](CC(C)C)NC(=O)[C@H](CCC(N)=O)NC(=O)[C@H](CCCCN)NC(=O)[C@H]1CNC[C@@H]1NC(=O)[C@H](CC(C)C)NC(=O)[C@H](CCCNC(=N)N)NC(=O)[C@H]1CCC[C@@H]1NC(=O)[C@H](Cc1ccc(O)cc1)NC(=O)[C@H](CC(N)=O)NC(=O)[C@H](CC(=O)O)NC(=O)[C@@H](NC(=O)[C@H](Cc1ccccc1)NC(=O)[C@@H](NC(=O)[C@H](C)NC(=O)[C@H](CC(=O)O)NC(=O)[C@H](CO)NC(=O)[C@@H](N)Cc1c[nH]cn1)C(C)C)[C@@H](C)O)C(C)C)C(=O)N[C@@H](CC(C)C)C(=O)NC(CC(N)=O)CC(N)=O` [Compound 8, HSDAVFTDNYXRLZKQLXVKZYLNXILN], the “Mean RLU” value in data set [11] ([Compound] 1.00E−07 M) is on record as 8920.0 RLU; in data set [11] ([Compound] 1.00E−08 M), 9560.0 RLU; in data set [11] ([Compound] 1.00E−09 M), 8560.0 RLU; in data set [11] ([Compound] 1.00E−10 M) it was 7560.0 RLU; in data set [11] ([Compound] 1.00E−11 M) it was 9280.0 RLU; in data set [11] ([Compound] 1.00E−12 M) it was 8300.0 RLU. The “Mean RLU” value in data set [11] ([Compound] 5.00E−07 M) is listed as 10200.0 RLU; in data set [11] ([Compound] 5.00E−08 M) it was 9200.0 RLU; in data set [11] ([Compound] 5.00E−09 M), 8560.0 RLU; in data set [11] ([Compound] 5.00E−10 M), 9820.0 RLU; in data set [12] ([Compound] 1.00E−08 M) it was 13700.0 RLU; in data set [12] ([Compound] 1.00E−09 M), 10600.0 RLU. Further, the “Mean RLU” value is on record as 9060.0 RLU in data set [12] ([Compound] 1.00E−10 M); 10500.0 RLU in data set [12] ([Compound] 1.00E−11 M); 10340.0 RLU in data set [12] ([Compound] 1.00E−12 M); 95460.0 RLU in data set [12] ([Compound] 5.00E−08 M); 13200.0 RLU in data set [12] ([Compound] 5.00E−09 M); 9820.0 RLU in data set [12] ([Compound] 5.00E−10 M). The “interaction with VIPR2” value in [11] (agonist mode) was “does not interact substantially”. In addition, the “activation of VIPR2” value in data set [11] (agonist mode, FIG. 3) is recorded as “not activate”. For the same compound, the “activation of VIPR1” value in [12] (agonist mode, FIG. 3) was “fully activate”.

As usually defined, the IC50 is the midpoint of a concentration-inhibition curve.

Source of the values: US10772934B2 (Longevity Biotech, Inc., priority 2010, dated 2020).
